# Test results published in patent publication US6746673B2, “Pharmaceutical compositions containing anti-Fas antibody” (Sankyo Company, Limited, priority 1999, dated 2004).
# Test system: Human lymphocyte cell stock HPB-ALL
# Assay: XTT cell viability assay of apoptosis induction in HPB-ALL cells
# Type: cell-based
# Conditions: only methotrexate added, no anti-Fas antibody, FIG. 3
# Procedure: Human lymphocyte cell stock HPB-ALL (cf. Morikawa, S., et al. (1978) Int. J. Cancer 21, 166-170) was cultured in RPMI 1640 medium containing 10% FCS (manufactured by Gibco B.R.L. Corporation) at 37° C., in the presence of 5% carbon dioxide gas for three days, and 50 μl of the culture (2.5×10^5 cells/50 μl) were dispensed into each well of a 96-well microplate (manufactured by Sumitomo Bakelite Co., Ltd.). Then, 50 μl of the RPMI medium containing methotrexate (manufactured by Sigma Chemical Company), and an anti-Fas antibody (CH11 or HFE7A, 0.001 mg/ml solution was serially diluted by three times) were added to each well, and was cultured at 37° C.
# The cells in the plate to which CH11 was added as an anti-Fas antibody were kept to be cultured at 37° C. overnight. […] The plate was then incubated for 3 hours at 37° C., and the absorbance at 450 nm of each well was measured, to calculate cell viability, using the reducing power of the mitochondria as the index.
# The viability of the cells in each well was calculated according to the following equation: […]
# wherein “a” is the absorbance of a test well, “b” is the absorbance of a well with no cells and c is the absorbance of a well with no antibody added.
structure (smiles),measurement,value
"CN(Cc1cnc2nc(N)nc(N)c2n1)c1ccc(C(=O)N[C@@H](CCC(=O)O)C(=O)O)cc1 [methotrexate, Methotrexate]",viability of the cells,almost no change
